“Also recorded” adds a separate entry of the source.
Columns and labels:
[1] = system: Malondialdehyde (MDA) produced by platelet; experiment: Inhibition of malondialdehyde (MDA) generation by thrombin-stimulated platelets (TBA method); assay type: cell-based, rats (Male Sprague-Dawley); conditions: rat platelet
Description: A platelet is agglutinated by the stimulus on thrombin. TXA2 is released by this stimulation, and it accelerated the agglutination of the platelet. And the malondialdehyde(MDA) is released with TXA2 . It is conducted whether the extract of the Ilex pubescens inhibits the production of MDA (Determination of Melondialdehyde) or not by the colorimetry method. As the extraction solvent, methanol, butanol and water are used. […] Their structures are as follows:
Male Sprague-Dawley rats, weightin 180-200 g, were used in experiment. Blood was collected by the same method with (test 1-2). 100 sample was let stand for 20 minutes, in polypropylene tube. It was centrifuged (1400 r.p.m. for 20 minutes) at 10° C. to obtain platelet rich plasma (PRP). PRP was recentrifuged (2800 r.m.p., for 20 minutes) at 10° C. to obtain precipitated platelet pellet. Platelet was suspended in 0.01 M of pH 7.4 phosphate buffer (1×10^9 cell/ml). To the platelet suspension, 100 µl of methanol extracts of Ilex pubescens was added and the reaction mixture was preincubated in thermostat of 37° C. for 20 minutes. 50 µl of thrombin (10 U) was then added to agglutinate the platelet, and thiobarbituric acid (TBA) was added as the couple. This reaction mixture was extracted by 2 ml of n-butanol and the n-butanol phase was separated by centrifugation (1200 r.p.m. for 10 minutes) at 30° C. The absorbance of n-butanol phase was observed by UV-spectrophotometer at 534 nm.
1 kg of root of Ilex pubescens was powdered and the powder of Ilex pubescens was extracted 4 times with each 500 ml of 70% methanol by heating in water bath. […] 12 g of methanol extract was suspended in the small amount of water and extracted with butanol several times. […] 12 g of methanol extract of Ilex pubescens, 4.1 g of butanol fraction and 6 g of water fraction were dissolved to 20 ml of methanol solutions, respectively. 1m1 of each solution was taken in test tube and methanol was removed under nitrogen atmosphere. Residue was suspended in 1m1 of 0.01 M phosphate buffer. 0.1 ml of suspension was used as sample.
*1 ml of washed platelet (1 × 10^9 cells/ml) of rats was
preincubated (37° C. for 30 minutes) with 0.1 ml of sample in 0.01
M phosphate buffer (pH 7.4, in normal saline). Then, to the agglutinated
platelet, 50 μl of bovine thrombin (10 U) was added.
**MDA was determined by the method of TBA. Each value is the mean of 2
Therefore, 4.1 g of butanol fraction was dissolved in 10 ml of methanol and chromatographed on Sephadex LH-20 column (Sigma Co., 3.8×66 cm) with methanol as eluant. After the first eluate (260 ml) corresponding to the void volume of the column was eluted, the eluate was collected in test tubes at the volume of 21ml. 12 fractions were obtained.
Each fraction was dissolved in 10 ml of methanol and 0.5 ml of methanol solution was taken. The solvent was evaporated under nitrogen atmosphere. The residue was suspended in 1m1 of 0.01 M phosphate buffer and 0.1m1 was used as sample. Inhibition of MDA generation was measured by the same method with Test 2-1).
*4.1 g of butanol extract was chromatographed on Sephadex LH20 column (3,
× 66 cm) with methanol as eluant.
**Each fraction was dissolved in 10 ml of methanol and 0.5 ml of solution

thromboxane synthase = conditions: known property; cited from earlier work

| Molecule | inhibition of MDA generation, result in words [1] | other results |
| --- | --- | --- |
| C[C@H]1CC[C@]2(C(=O)O[C@@H]3O[C@H](CO)[C@@H](O)[C@H](O)[C@H]3O)CC[C@]3(C)C(=CC[C@@H]4[C@@]5(C)CC[C@H](O[C@@H]6OC[C@@H](O)[C@H](O)[C@H]6O[C@@H]6O[C@H](CO)[C@@H](O)[C@H](O)[C@H]6O)C(C)(C)[C@@H]5CC[C@]43C)[C@@H]2[C@]1(C)O [Ilexoside K] | had no effect; also recorded: ineffective |  |
| C[C@H]1CC[C@]2(C(=O)O)CC[C@]3(C)C(=CC[C@@H]4[C@@]5(C)CC[C@H](O[C@@H]6OC[C@@H](O)[C@H](O)[C@H]6O[C@@H]6O[C@H](CO)[C@@H](O)[C@H](O)[C@H]6O)C(C)(C)[C@@H]5CC[C@]43C)[C@@H]2[C@]1(C)O [Ilexoside D] | exhibited the greatest antithrombic activity | inhibition of MDA generation, result in words ([1]; listed as ilexoside D): effective; also recorded: inhibits MDA production |
| Prosapogenin A | did not inhibit MDA generation |  |
| CC1CCC2(C(=O)O)CCC3(C)C(=CCC4C5(C)CCC(O)C(C)(C(=O)O)C5CCC43C)C2C1(C)O (stereo not drawn) [Pubescenic acid] | inhibits MDA production | IC50 (concentration inhibiting 50% of MDA generation) ([1]; isolated components, imidazole as control): 0.41 mg |
| c1c[nH]cn1 [Imidazole] |  | inhibition of thromboxane synthase, in words (thromboxane synthase): known as the inhibitor of thromboxane synthase |
| C[C@@H]1O[C@@H](O[C@H]2[C@H](O[C@H]3[C@H](O[C@H]4CC[C@]5(C)[C@H]6CC=C7[C@H]8[C@](C(=O)O[C@@H]9O[C@H](CO)[C@@H](O)[C@H](O)[C@H]9O)(CC[C@H](C)[C@@]8(C)O)CC[C@@]7(C)[C@]6(C)CC[C@H]5C4(C)C)OC[C@@H](O)[C@@H]3O)O[C@H](CO)[C@@H](O)[C@@H]2O)[C@H](O)[C@H](O)[C@H]1O [Ilexoside O] | exhibited no effect | inhibition of MDA generation, result in words ([1]; listed as ilexoside O): ineffective |
